Columns and labels:
[1] = test system: UACC-62; assay: Anticancer activity against human UACC-62 cells assessed as cell growth inhibition incubated for 48 hrs by SRB assay; format: functional
[2] = test system: UACC-257; assay: Anticancer activity against human UACC-257 cells assessed as cell growth inhibition incubated for 48 hrs by SRB assay; format: functional
[3] = test system: PC-3; assay: Anticancer activity against human PC-3 cells assessed as cell growth inhibition incubated for 48 hrs by SRB assay; format: functional
[4] = test system: HCC 2998; assay: Anticancer activity against human HCC 2998 cells assessed as cell growth inhibition incubated for 48 hrs by SRB assay; format: functional
[5] = test system: A549; assay: Anticancer activity against human A549 cells assessed as cell growth inhibition incubated for 48 hrs by SRB assay; format: functional
[6] = test system: NCI-H23; assay: Anticancer activity against human NCI-H23 cells assessed as cell growth inhibition incubated for 48 hrs by SRB assay; format: functional
[7] = test system: RPMI-8226; assay: Anticancer activity against human RPMI-8226 cells assessed as cell growth inhibition incubated for 48 hrs by SRB assay; format: functional
[8] = test system: HCT-116; assay: Anticancer activity against human HCT-116 cells assessed as cell growth inhibition incubated for 48 hrs by SRB assay; format: functional
[9] = test system: SW-620; assay: Anticancer activity against human SW-620 cells assessed as cell growth inhibition incubated for 48 hrs by SRB assay; format: functional
[10] = test system: BT-549; assay: Anticancer activity against human BT-549 cells assessed as cell growth inhibition incubated for 48 hrs by SRB assay; format: functional
[11] = test system: SF-539; assay: Anticancer activity against human SF-539 cells assessed as cell growth inhibition incubated for 48 hrs by SRB assay; format: functional
[12] = test system: NCI-H460; assay: Anticancer activity against human NCI-H460 cells assessed as cell growth inhibition incubated for 48 hrs by SRB assay; format: functional
[13] = test system: NCI-H226; assay: Anticancer activity against human NCI-H226 cells assessed as cell growth inhibition incubated for 48 hrs by SRB assay; format: functional
[14] = test system: OVCAR-5; assay: Anticancer activity against human OVCAR-5 cells assessed as cell growth inhibition incubated for 48 hrs by SRB assay; format: functional
[15] = test system: IGROV-1; assay: Anticancer activity against human IGROV-1 cells assessed as cell growth inhibition incubated for 48 hrs by SRB assay; format: functional
[16] = test system: OVCAR-8; assay: Anticancer activity against human OVCAR-8 cells assessed as cell growth inhibition incubated for 48 hrs by SRB assay; format: functional
[17] = test system: A498; assay: Anticancer activity against human A498 cells assessed as cell growth inhibition incubated for 48 hrs by SRB assay; format: functional
[18] = test system: SK-MEL-28; assay: Anticancer activity against human SK-MEL-28 cells assessed as cell growth inhibition incubated for 48 hrs by SRB assay; format: functional
[19] = test system: Hs-578T; assay: Anticancer activity against human Hs-578T cells assessed as cell growth inhibition incubated for 48 hrs by SRB assay; format: functional
[20] = test system: TK-10; assay: Anticancer activity against human TK-10 cells assessed as cell growth inhibition incubated for 48 hrs by SRB assay; format: functional
[21] = test system: SNB-75; assay: Anticancer activity against human SNB-75 cells assessed as cell growth inhibition incubated for 48 hrs by SRB assay; format: functional
[22] = test system: CCRF-CEM; assay: Anticancer activity against human CCRF-CEM cells assessed as cell growth inhibition incubated for 48 hrs by SRB assay; format: functional
[23] = test system: COLO 205; assay: Anticancer activity against human COLO 205 cells assessed as cell growth inhibition incubated for 48 hrs by SRB assay; format: functional
[24] = test system: SN12C; assay: Anticancer activity against human SN12C cells assessed as cell growth inhibition incubated for 48 hrs by SRB assay; format: functional
[25] = test system: MCF7; assay: Anticancer activity against human MCF7 cells assessed as cell growth inhibition incubated for 48 hrs by SRB assay; format: functional
[26] = test system: NCI-H322M; assay: Anticancer activity against human NCI-H322M cells assessed as cell growth inhibition incubated for 48 hrs by SRB assay; format: functional
[27] = test system: MDA-MB-468; assay: Anticancer activity against human MDA-MB-468 cells assessed as cell growth inhibition incubated for 48 hrs by SRB assay; format: functional
[28] = test system: RXF 393; assay: Anticancer activity against human RXF 393 cells assessed as cell growth inhibition incubated for 48 hrs by SRB assay; format: functional
[29] = test system: SNB-19; assay: Anticancer activity against human SNB-19 cells assessed as cell growth inhibition incubated for 48 hrs by SRB assay; format: functional
[30] = test system: UO-31; assay: Anticancer activity against human UO-31 cells assessed as cell growth inhibition incubated for 48 hrs by SRB assay; format: functional
[31] = test system: HL-60(TB); assay: Anticancer activity against human HL-60(TB) cells assessed as cell growth inhibition incubated for 48 hrs by SRB assay; format: functional
[32] = test system: MOLT-4; assay: Anticancer activity against human MOLT-4 cells assessed as cell growth inhibition incubated for 48 hrs by SRB assay; format: functional
[33] = test system: SK-MEL-2; assay: Anticancer activity against human SK-MEL-2 cells assessed as cell growth inhibition incubated for 48 hrs by SRB assay; format: functional
[34] = test system: CAKI-1; assay: Anticancer activity against human CAKI-1 cells assessed as cell growth inhibition incubated for 48 hrs by SRB assay; format: functional
[35] = test system: M14; assay: Anticancer activity against human M14 cells assessed as cell growth inhibition incubated for 48 hrs by SRB assay; format: functional
[36] = test system: HOP-62; assay: Anticancer activity against human HOP-62 cells assessed as cell growth inhibition incubated for 48 hrs by SRB assay; format: functional
[37] = test system: U-251; assay: Anticancer activity against human U-251 cells assessed as cell growth inhibition incubated for 48 hrs by SRB assay; format: functional
[38] = test system: HOP-92; assay: Anticancer activity against human HOP-92 cells assessed as cell growth inhibition incubated for 48 hrs by SRB assay; format: functional
[39] = test system: HT-29; assay: Anticancer activity against human HT-29 cells assessed as cell growth inhibition incubated for 48 hrs by SRB assay; format: functional
[40] = Cytotoxicity against human HEK293 cells assessed as inhibition of cell viability by MTT assay
[41] = read-out: LC50 (the source's name)

NS(=O)(=O)c1ccc(Nc2nc(N/N=C/c3ccccn3)nc(Nc3ccccc3)n2)cc1 gave a GI50 [1] of 0.57 µM, an LC50 [1] of 6.15 µM and a GI50 [2] of 2.14 µM. The LC50 [2] was > 100 µM, the GI50 [3] was 0.69 µM and the CC50 [3, 41] was > 100 µM. The GI50 [4] was 0.65 µM, the CC50 [4, 41] was > 100 µM and the GI50 [5] was 2.29 µM. The LC50 [5] was > 100 µM, the GI50 [6] was 1.21 µM and the CC50 [6, 41] was 8.41 µM. For the same compound, the GI50 [7] was 2.11 µM, the LC50 (concentration killing 50% of cells) [7] was > 100 µM and the GI50 [8] was 0.39 µM. For the same compound, the LC50 (concentration killing 50% of cells) [8] was > 100 µM, the GI50 [9] was 0.71 µM and the CC50 [9, 41] was > 100 µM. For the same compound, the GI50 [10] was 0.89 µM, the CC50 [10, 41] was > 100 µM and the GI50 [11] was 0.68 µM. The CC50 [11, 41] was 8 µM, the GI50 [12] was 2.41 µM and the CC50 [12, 41] was > 100 µM. For the same compound, the GI50 [13] was 1.07 µM, the CC50 [13, 41] was > 100 µM and the GI50 [14] was 1.6 µM. For the same compound, the CC50 [14, 41] was > 100 µM, the GI50 [15] was 0.79 µM and the CC50 [15, 41] was > 100 µM. For the same compound, the GI50 [16] was 0.44 µM, the LC50 [16] was > 100 µM and the GI50 [17] was 1.61 µM. The CC50 [17, 41] was 6.89 µM, the GI50 [18] was 0.75 µM and the CC50 [18, 41] was 6.19 µM. For the same compound, the GI50 [19] was 1.88 µM, the LC50 (concentration killing 50% of cells) [19] was > 100 µM and the GI50 [20] was 1.19 µM. For the same compound, the CC50 [20, 41] was > 100 µM, the GI50 [21] was 1.32 µM and the LC50 (concentration killing 50% of cells) [21] was 5.71 µM. The GI50 [22] was 0.31 µM, the CC50 [22, 41] was > 100 µM and the GI50 [23] was 0.41 µM. The CC50 [23, 41] was > 100 µM, the GI50 [24] was 1.01 µM and the LC50 [24] was > 100 µM. It also gave a GI50 [25] of 1.1 µM, an LC50 [25] of 6.8 µM and a GI50 [26] of 0.4 µM. The CC50 [26, 41] was > 100 µM, the GI50 [27] was 0.31 µM and the CC50 [27, 41] was > 100 µM. For the same compound, the GI50 [28] was 1.07 µM, the CC50 [28, 41] was 6.51 µM and the GI50 [29] was 0.85 µM. The CC50 [29, 41] was > 100 µM, the GI50 [30] was 1.5 µM and the CC50 [30, 41] was 89.5 µM. The GI50 [31] was 0.63 µM, the CC50 [31, 41] was > 100 µM and the GI50 [32] was 0.43 µM. For the same compound, the CC50 [32, 41] was > 100 µM, the GI50 [33] was 1.5 µM and the GI50 [34] was 0.61 µM. For the same compound, the CC50 [34, 41] was > 100 µM, the GI50 [35] was 0.85 µM and the GI50 [36] was 0.55 µM. The CC50 [36, 41] was > 100 µM, the GI50 [37] was 0.51 µM and the CC50 [37, 41] was > 100 µM. The GI50 [38] was 0.8 µM, the CC50 [38, 41] was > 100 µM and the GI50 [39] was 2.15 µM. The CC50 [39, 41] was > 100 µM and the IC50 [40] was 45.6 µM.
